Measured values: the NIST ThermoML archive (doi:10.1021/je300202z)
Several values for one entry are separate records, joined by “and”; a condition that tells them apart may be missing. Identical values can stand only once. Numbers after ± are expanded uncertainties.

Conditions: Liquid, Ebulliometric method (Recirculating still)

Row | vapor or sublimation pressure (388.6 K) | vapor or sublimation pressure (396.1 K) | vapor or sublimation pressure (400.4 K) | vapor or sublimation pressure (402.3 K) | vapor or sublimation pressure (404.2 K) | vapor or sublimation pressure (407.5 K) | vapor or sublimation pressure (407.8 K) | SMILES | vapor or sublimation pressure (408.2 K) | vapor or sublimation pressure (416.7 K) | vapor or sublimation pressure (421.5 K) | vapor or sublimation pressure (423.7 K) | vapor or sublimation pressure (425.8 K) | vapor or sublimation pressure (428.8 K) | vapor or sublimation pressure (429.7 K)
1 | 53.33 ± 2.4 kPa | 69.33 ± 2.5 kPa | 80 ± 2.8 kPa | 85.33 ± 3 kPa | 90.66 ± 3.2 kPa | 100.93 ± 3.3 kPa | 101.33 ± 3.1 kPa and 100.93 ± 5.6 kPa | CCOCCO [2-ethoxyethan-1-ol] | – | – | – | – | – | – | –
2 | – | – | – | – | – | – | – | CCOCCOC(C)=O [2-ethoxyethyl ethanoate] | 53.33 ± 2.1 kPa | 69.33 ± 2.2 kPa | 80 ± 2.5 kPa | 85.33 ± 2.7 kPa | 90.66 ± 3.3 kPa | 101.33 ± 3.7 kPa and 100.93 ± 5.5 kPa | 100.93 ± 2.8 kPa
